Experimental data: US20210379040A1, “COMBINATION TREATMENT OF LIVER DISORDERS” (Terns Pharmaceuticals, Inc., priority 2020, published 2021)
Marks after values point to notes of the source that are not given here.

Assays:
[1] = biological target: T1, SSAO (Homo sapiens, UniProt Q16853); assay: Biochemical activity, SSAO
T1 sequence (Q16853 1-763): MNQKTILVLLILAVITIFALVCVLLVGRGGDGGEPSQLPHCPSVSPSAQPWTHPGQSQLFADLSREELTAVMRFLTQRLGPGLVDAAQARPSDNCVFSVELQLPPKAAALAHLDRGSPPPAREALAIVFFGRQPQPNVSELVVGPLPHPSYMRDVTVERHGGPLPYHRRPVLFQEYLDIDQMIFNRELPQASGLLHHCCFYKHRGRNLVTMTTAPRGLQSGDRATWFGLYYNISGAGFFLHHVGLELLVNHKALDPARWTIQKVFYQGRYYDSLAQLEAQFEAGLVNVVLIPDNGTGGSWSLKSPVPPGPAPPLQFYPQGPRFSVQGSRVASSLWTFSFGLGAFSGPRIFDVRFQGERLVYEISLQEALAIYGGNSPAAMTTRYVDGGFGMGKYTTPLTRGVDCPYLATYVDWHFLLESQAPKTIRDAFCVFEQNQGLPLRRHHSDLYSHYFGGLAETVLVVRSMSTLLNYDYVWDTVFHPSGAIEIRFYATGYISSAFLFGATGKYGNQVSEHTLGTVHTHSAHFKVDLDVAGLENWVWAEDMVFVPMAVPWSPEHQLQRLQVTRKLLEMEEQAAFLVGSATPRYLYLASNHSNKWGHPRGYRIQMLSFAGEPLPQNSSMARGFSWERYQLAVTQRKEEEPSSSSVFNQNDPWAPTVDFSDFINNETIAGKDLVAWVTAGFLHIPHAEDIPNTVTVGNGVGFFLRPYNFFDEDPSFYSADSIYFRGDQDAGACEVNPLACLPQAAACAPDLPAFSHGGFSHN

[2] = biological target: T2, MAO-A (Homo sapiens, UniProt P21397); assay: Biochemical activity, MAO-A
T2 sequence (P21397 1-527): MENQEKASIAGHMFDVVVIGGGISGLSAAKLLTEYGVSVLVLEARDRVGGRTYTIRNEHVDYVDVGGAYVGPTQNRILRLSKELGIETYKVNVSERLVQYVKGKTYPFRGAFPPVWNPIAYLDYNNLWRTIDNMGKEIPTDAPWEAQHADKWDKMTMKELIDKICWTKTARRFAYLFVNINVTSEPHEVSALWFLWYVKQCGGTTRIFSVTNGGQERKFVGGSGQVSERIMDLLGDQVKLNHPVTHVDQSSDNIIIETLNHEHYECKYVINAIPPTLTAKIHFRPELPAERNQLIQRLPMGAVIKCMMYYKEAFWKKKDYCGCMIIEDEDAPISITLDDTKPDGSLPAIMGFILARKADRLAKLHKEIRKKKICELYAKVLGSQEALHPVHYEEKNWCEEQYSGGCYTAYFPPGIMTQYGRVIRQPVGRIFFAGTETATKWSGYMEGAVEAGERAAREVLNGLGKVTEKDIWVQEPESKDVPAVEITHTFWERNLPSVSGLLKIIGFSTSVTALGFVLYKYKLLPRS

[3] = tested on: liver gene expression (lipid metabolism and fatty acid transport genes); assay: Rat CDHFD+NaNO2 NASH model: liver whole transcriptome RNAseq (DEGs); format: in vivo, male Wistar rats; conditions: Compound 2 25 mg/kg, Compound 1 3 mg/kg
Description: Animal handling: After arrival, the rats were left for a 2-week acclimation period, during which they were accustomed to the animal facility staff and trained on the procedure of oral gavage. […] Rats were then treated with test compounds for an additional 8 weeks while on CDHFD. […] Final Sacrifice: Half of the animals of each treatment group were terminated on day 84. The other half of the animals in each group were terminated on the following day, day 85. On the day of sacrifice the animals were fasted for 2 hours and received a final treatment with the respective test substance. After the final compound treatment, the animals had no more access to food until sacrifice. At 4 hours after the last administration all animals were sacrificed and livers were sampled for further analysis. Sampling and analysis: Small liver pieces were harvested into RNAlater (Thermo Fisher Scientific Dreieich Germany) and stored at −20° C. prior to RNA sequencing (RNAseq) at MedGenome Inc. RNAseq analysis was performed on liver tissue by Illumina sequencing using standard methodologies. […] Alignment was performed using STAR (v2.7.3a) aligner and reads mapping to ribosomal and mitochondrial genome were removed prior to alignment. Raw read counts were estimated using HTSeq (v0.11.1) and normalized using DESeq2 (v2.22.2). Differentially expressed genes (DEGs) were determined using DESeq2 (R Bioconductor package). […]

[4] = Single-ascending dose clinical trial: plasma PK and safety
Description: SSAO inhibition was determined by measuring relative reductions in plasma H2O2 generation after addition of an exogenous substrate (benzylamine). […] Safety was assessed for 7 (±3) days after dosing.
Plasma PK parameters were determined by non-compartmental analysis. […] Percent change in total amine oxidase activity was determined relative to the corresponding pre-dose (baseline) samples.

[5] = Tissue distribution after 2 mg/kg intravenous infusion; format: in vivo; conditions: SD rats, with 100 μM rifampin
Description: The tested compounds were administered to SD rats (n=3 per compound) by way of 30 minute intravenous infusion at 2 mg/kg. Blood, liver, kidney, and lung tissue samples were collected from the rats to determine a tissue/plasma ratio.

[6] = Clinical study, First Study (14 days, healthy volunteers); format: in vivo; conditions: healthy human volunteers, oral daily 5, 75, 200 or 400 mg for 14 days
[7] = Metabolism and excretion of radiolabeled (14C) compound; format: in vivo; conditions: SD rats, bile duct intact or cannulated, orally 5 mg/kg or intravenously 2 mg/kg
Description: Blood, bile, feces, and urine samples were collected from each rat for up to 168 hours.

[8] = tested on: mouse hepatocytes; assay: In vitro metabolic stability in cryopreserved hepatocytes (mouse); format: in vitro ADME
Description: In vitro half-life values were determined and scaled to predict hepatic clearance (CLpred) and hepatic extraction using the well-stirred liver model with no correction for plasma protein as described in Obach et al., The Prediction of Human Pharmacokinetic Parameters from Preclinical and In Vitro Metabolism Data, J. of Pharmacology and Experimental Therapeutics, vol. 283, no. 1, pp. 46-58 (1997).

Row | Structure (SMILES) | IC50 [1] [nM] | IC50 [2] [nM] | Ppargc1a differential gene expression relative to vehicle control [3] | plasma PK exposure increase with dose ([4]; between the 3 and 10 mg dose levels, single oral dose) | tolerability ([4]; doses 1, 3, 6, and 10 mg, single dose) | adverse events or laboratory abnormalities ([4]; healthy humans, single oral dose 1-10 mg) | half-life ([4]; male, human, plasma, po, 10 mg) [h] | change in distribution to the liver on co-administration with rifampin [5] | incidences of pruritus [6] | metabolism and major elimination pathway [7] | Hepatic Extraction [8] [%] | In vitro Metabolic CLpred ([8]; well-stirred liver model) [mL/min/kg]
1 | COC1CCN(c2ncc(OC/C(=C/F)CN)cn2)CC1 [Compound 2] | 6.5 | > 50000 | 0.51* log2-fold change | greater than dose proportional | well tolerated | No clinically relevant adverse events or laboratory abnormalities were reported | 1 to 3 | – | – | – | – | –
2 | Cn1cc(C(=O)O)c2ccc(N3CCC(OCc4c(-c5c(Cl)cccc5Cl)noc4C4CC4)CC3)cc21 [Compound 1] | – | – | 0.25 log2-fold change | – | – | – | – | does not result in a significant change | no incidences of pruritus were observed | metabolized into an acyl glucuronide metabolite prior to biliary excretion | 80.7 ± 1.02 | 72.7 ± 1
